For 22 compounds, EC50 results are on record in patent publication US20250122218A1, “MODULATORS OF CYSTIC FIBROSIS TRANSMEMBRANE CONDUCTANCE REGULATOR” (Vertex Pharmaceuticals Incorporated, priority 2022, published 2025).

The target of the assay is T1, CFTR in F508del/MF-HBE cells (Homo sapiens, UniProt P13569, DEL508-508).
T1 construct: human bronchial epithelial (HBE) cells derived from CF subjects heterozygous for F508del and a minimal function CFTR mutation; endogenous in cells; host or cells: primary human bronchial epithelial cells from CF subjects (F508del/MF-HBE)
T1 sequence (P13569 with tags, fused parts or gaps DEL508-508): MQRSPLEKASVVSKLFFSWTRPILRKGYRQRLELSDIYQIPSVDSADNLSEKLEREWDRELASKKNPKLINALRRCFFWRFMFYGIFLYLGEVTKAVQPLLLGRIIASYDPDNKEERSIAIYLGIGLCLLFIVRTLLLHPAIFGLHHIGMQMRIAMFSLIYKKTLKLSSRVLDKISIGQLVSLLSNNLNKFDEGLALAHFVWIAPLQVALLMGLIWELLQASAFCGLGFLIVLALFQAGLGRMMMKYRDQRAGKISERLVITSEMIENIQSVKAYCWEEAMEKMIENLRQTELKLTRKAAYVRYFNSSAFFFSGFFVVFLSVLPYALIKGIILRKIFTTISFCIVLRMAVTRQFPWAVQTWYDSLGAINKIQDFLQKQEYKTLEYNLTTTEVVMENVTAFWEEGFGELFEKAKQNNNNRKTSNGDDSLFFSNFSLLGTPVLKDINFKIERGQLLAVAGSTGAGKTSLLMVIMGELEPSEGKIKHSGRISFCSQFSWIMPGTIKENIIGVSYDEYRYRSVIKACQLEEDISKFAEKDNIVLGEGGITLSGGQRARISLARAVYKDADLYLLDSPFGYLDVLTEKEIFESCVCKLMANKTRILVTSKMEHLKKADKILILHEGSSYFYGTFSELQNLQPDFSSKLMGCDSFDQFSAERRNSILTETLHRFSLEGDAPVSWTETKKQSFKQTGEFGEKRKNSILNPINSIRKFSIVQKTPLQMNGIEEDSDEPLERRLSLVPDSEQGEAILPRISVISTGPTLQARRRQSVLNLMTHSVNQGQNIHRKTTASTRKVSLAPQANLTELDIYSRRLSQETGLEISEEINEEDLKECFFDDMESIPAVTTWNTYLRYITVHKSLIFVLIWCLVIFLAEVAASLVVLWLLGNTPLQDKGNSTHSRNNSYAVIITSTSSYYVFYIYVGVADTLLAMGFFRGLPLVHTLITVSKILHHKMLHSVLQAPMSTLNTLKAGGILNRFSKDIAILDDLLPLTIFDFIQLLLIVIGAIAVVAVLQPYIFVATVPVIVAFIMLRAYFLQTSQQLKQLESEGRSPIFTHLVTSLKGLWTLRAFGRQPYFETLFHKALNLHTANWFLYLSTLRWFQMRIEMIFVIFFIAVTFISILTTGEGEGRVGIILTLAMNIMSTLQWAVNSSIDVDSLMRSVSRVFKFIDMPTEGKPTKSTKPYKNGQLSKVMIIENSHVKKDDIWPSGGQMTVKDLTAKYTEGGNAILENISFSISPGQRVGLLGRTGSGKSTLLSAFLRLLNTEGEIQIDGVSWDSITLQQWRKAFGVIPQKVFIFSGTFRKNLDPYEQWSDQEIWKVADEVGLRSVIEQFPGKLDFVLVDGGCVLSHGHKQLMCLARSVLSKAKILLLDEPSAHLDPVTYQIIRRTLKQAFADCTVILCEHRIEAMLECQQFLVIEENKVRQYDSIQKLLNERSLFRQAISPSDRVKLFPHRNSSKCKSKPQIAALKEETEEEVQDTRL
The assay is described as follows: Ussing chamber assay of CFTR-mediated short-circuit currents (identification of potentiator compounds). Type of assay: cell-based. The conditions noted are these: potentiator incubated 18-24 hours at 37° C. in combination with 10 μM corrector, in the presence of 20% human serum, CFTR-mediated ISC. An outline of the steps:
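F508del/MF-HBE cultures were preincubated 18-24 h at 37° C with potentiator plus 10 μM of a fixed corrector compound in 20% human serum; compounds were kept present during measurement. ISC was recorded under voltage clamp (0 mV, 37° C, amiloride apical) and taken as the 20 μM forskolin peak minus the current after inhibitor cocktail.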
In the case of `Nc1cc(C(F)(F)F)c2nc1-c1nnc(o1)[C@@](O)(C(F)(F)F)CCCCCN(Cc1ccc(OCC(F)(F)F)cc1)C2=O` [Compound 181, (6R)-17-amino-6-hydroxy-12-[[4-(2,2,2-trifluoroethoxy)phenyl]methyl]-6,15-bis (trifluoromethyl)-19-oxa-3,4,12,18-tetrazatricyclo [12.3.1.12,5] nonadeca-1(18),2,4,14,1 6-pentaen-13-one], the EC50 is less than 500 nM.

As to `Nc1cc(C(F)(F)F)c2nc1-c1nnc(o1)[C@@](O)(C(F)(F)F)CCCCCN(Cc1cccc(C(F)(F)F)c1)C2=O` [Compound 182, (6R)-17-amino-6-hydroxy-6,15-bis (trifluoromethyl)-12-[[3-(trifluoromethyl)phenyl]methyl]-19-oxa-3,4,12,18-tetrazatricyclo [12.3.1.12,5] nonadeca-1(18),2,4,14,1 6-pentaen-13-one], the EC50 was less than 500 nM.

Take `C[C@H]1C[C@H](c2ccc(CN3CCCCC[C@](O)(C(F)(F)F)C4=NN=C(O4)c4nc(c(C(F)(F)F)cc4N)C3=O)cc2)C1` [Compound 183, (6R)-17-amino-6-hydroxy-12-({4-[trans-3-methylcyclobutyl]phenyl}methyl)-6,15-bis (trifluoromethyl)-19-oxa-3,4,12,18-tetraazatricyclo [12.3.1.12,5] nonadeca-1(18),2,4,14,1 6-pentaen-13-one]: the half-maximal effective concentration (EC50) was less than 500 nM.

With `CC(C)(C)c1cccc(CN2CCCCC[C@](O)(C(F)(F)F)C3=NN=C(O3)c3nc(c(C(F)(F)F)cc3N)C2=O)n1` [Compound 184, (6R)-17-amino-12-[(6-tert-butyl-2-pyridyl)methyl]-6-hydroxy-6,15-bis (trifluoromethyl)-19-oxa-3,4,12,18-tetrazatricyclo [12.3.1.12,5] nonadeca-1(18),2,4,14,1 6-pentaen-13-one], the EC50 was less than 500 nM.

For `Nc1cc(C(F)(F)F)c2nc1-c1nnc(o1)[C@@](O)(C(F)(F)F)CCCCCN(Cc1cccc(N3CCCCC3)n1)C2=O` [Compound 185, (6R)-17-amino-6-hydroxy-12-[[6-(1-piperidyl)-2-pyridyl]methyl]-6,15-bis (trifluoromethyl)-19-oxa-3,4,12,18-tetrazatricyclo [12.3.1.12,5] nonadeca-1(18),2,4,14,1 6-pentaen-13-one], the EC50 is less than 500 nM.

Regarding `Nc1cc(C(F)(F)F)c2nc1-c1nnc(o1)[C@@](O)(C(F)(F)F)CCCCCN(Cc1cccc(OCC(F)(F)F)c1)C2=O` [Compound 186, (6R)-17-amino-6-hydroxy-12-[[3-(2,2,2-trifluoroethoxy)phenyl]methyl]-6,15-bis (trifluoromethyl)-19-oxa-3,4,12,18-tetrazatricyclo [12.3.1.12,5] nonadeca-1(18),2,4,14,1 6-pentaen-13-one], the 50% effective concentration (EC50) is less than 500 nM.

Turning to `Nc1cc(C(F)(F)F)c2nc1-c1nnc(o1)[C@@](O)(C(F)(F)F)CCCCCN(Cc1ccc(N3CCCCC3)nc1)C2=O` [Compound 187, (6R)-17-amino-6-hydroxy-12-[[6-(1-piperidyl)-3-pyridyl]methyl]-6,15-bis (trifluoromethyl)-19-oxa-3,4,12,18-tetrazatricyclo [12.3.1.12,5] nonadeca-1(18),2,4,14,1 6-pentaen-13-one], the EC50 was less than 500 nM.

For the compound `Nc1cc(C(F)(F)F)c2nc1-c1nnc(o1)[C@@](O)(C(F)(F)F)CCCCCNC2=O` [Compound 188, (6R)-17-amino-6-hydroxy-6,15-bis(trifluoromethyl)-19-oxa-3,4,12,18-tetrazatricyclo[12.3.1.12,5]nonadeca-1(18),2,4,14,16-pentaen-13-one], the EC50 was less than 500 nM.

For the compound `Nc1cc(C(F)(F)F)c2nc1-c1nnc(o1)[C@](O)(C(F)(F)F)CCCCCNC2=O` [Compound 189, (6S)-17-amino-6-hydroxy-6,15-bis(trifluoromethyl)-19-oxa-3,4,12,18-tetrazatricyclo[12.3.1.12,5]nonadeca-1(18),2,4,14,16-pentaen-13-one], the EC50 was more than 1000 nM.

`CC(=O)N1CC2(CC(N3CCCCC[C@](O)(C(F)(F)F)C4=NN=C(O4)c4nc(c(C(F)(F)F)cc4N)C3=O)C2)C1` [Compound 190, (6R)-12-(2-acetyl-2-azaspiro[3.3]heptan-6-yl)-17-amino-6-hydroxy-6,15-bis(trifluoromethyl)-19-oxa-3,4,12,18-tetrazatricyclo[12.3.1.12,5]nonadeca-1(18),2,4,14,16-pentaen-13-one]: the EC50 was more than 1000 nM.

For the compound `Nc1cc(C(F)(F)F)c2nc1-c1nnc(o1)[C@@](O)(C(F)(F)F)CCCCCN(C1CC3(C1)CN(C(=O)C1CC1)C3)C2=O` [Compound 191, (6R)-17-amino-12-[2-(cyclopropanecarbonyl)-2-azaspiro[3.3]heptan-6-yl]-6-hydroxy-6,15-bis(trifluoromethyl)-19-oxa-3,4,12,18-tetrazatricyclo[12.3.1.12,5]nonadeca-1(18),2,4,14,16-pentaen-13-one], the EC50 was more than 1000 nM.

In the case of `NC[C@H]1CC[C@H](N2CCCCC[C@](O)(C(F)(F)F)C3=NN=C(O3)c3nc(c(C(F)(F)F)cc3N)C2=O)CC1` [Compound 192, (6R)-17-amino-6-hydroxy-12-[trans-4-(aminomethyl)cyclohexyl]-6,15-bis(trifluoromethyl)-19-oxa-3,4,12,18-tetraazatricyclo[12.3.1.12,5]nonadeca-1(18),2,4,14,16-pentaen-13-one], the EC50 was more than 1000 nM.

As for `N#C[C@H]1CC[C@H](N2CCCCC[C@](O)(C(F)(F)F)C3=NN=C(O3)c3nc(c(C(F)(F)F)cc3N)C2=O)CC1` [Compound 193, trans-4-[(6R)-17-amino-6-hydroxy-13-oxo-6,15-bis(trifluoromethyl)-19-oxa-3,4,12,18-tetraazatricyclo[12.3.1.12,5]nonadeca-1(18),2,4,14,16-pentaen-12-yl]cyclohexane-1-carbonitrile], the concentration giving a half-maximal response (EC50) is less than 500 nM.

`Nc1cc(C(F)(F)F)c2nc1-c1nnc(o1)[C@@](O)(C(F)(F)F)CCCCCN(Cc1ccc(C34CC(C3)C4)cc1)C2=O` [Compound 195, (6R)-17-amino-12-[[4-(1-bicyclo[1.1.1]pentanyl)phenyl]methyl]-6-hydroxy-6,15-bis(trifluoromethyl)-19-oxa-3,4,12,18-tetrazatricyclo[12.3.1.12,5]nonadeca-1(18),2,4,14,16-pentaen-13-one]: the EC50 was less than 500 nM.

Regarding `Nc1cc(C(F)(F)F)c2nc1-c1nnc(o1)[C@@](O)(C(F)(F)F)CCCCCN([C@H]1CC[C@@H](C(F)(F)F)CC1)C2=O` [Compound 208, (6R)-17-amino-6-hydroxy-12-[(1s,4s)-4-(trifluoromethyl)cyclohexyl]-6,15-bis(trifluoromethyl)-19-oxa-3,4,12,18-tetraazatricyclo [12.3.1.12,5] nonadeca-1(18),2,4,14,16-pentaen-13-one], the EC50 is less than 500 nM.

Turning to `Nc1cc(C(F)(F)F)c2nc1-c1nnc(o1)[C@@](O)(C(F)(F)F)CCCCCN([C@H]1CC[C@H](C(F)(F)F)CC1)C2=O` [Compound 209, (6R)-17-amino-6-hydroxy-12-[(1r,4r)-4-(trifluoromethyl)cyclohexyl]-6,15-bis(trifluoromethyl)-19-oxa-3,4,12,18-tetraazatricyclo [12.3.1.12,5] nonadeca-1(18),2,4,14,16-pentaen-13-one], the EC50 is less than 500 nM.

Take `Nc1cc(C(F)(F)F)c2nc1-c1nnc(o1)[C@@](O)(C(F)(F)F)CCCCCN(C13CCC(CC1)CC3)C2=O` [Compound 210, (6R)-17-amino-12-(1-bicyclo[2.2.2]octanyl)-6-hydroxy-6,15-bis(trifluoromethyl)-19-oxa-3,4,12,18-tetrazatricyclo [12.3.1.12,5] nonadeca-1(18),2,4,14,16-pentaen-13-one]: the half-maximal effective concentration (EC50) was less than 500 nM.

Turning to `COC12CCC(N3CCCCC[C@](O)(C(F)(F)F)c4nnc(o4)-c4nc(c(C(F)(F)F)cc4N)C3=O)(CC1)C2` [Compound 211, (6R)-17-amino-6-hydroxy-12-(4-methoxynorbornan-1-yl)-6,15-bis(trifluoromethyl)-19-oxa-3,4,12,18-tetrazatricyclo [12.3.1.12,5] nonadeca-1(18),2,4,14,16-pentaen-13-one], the EC50 is less than 500 nM.

Turning to `Cc1cccc(CN2CCCCC[C@](O)(C(F)(F)F)C3=NN=C(O3)c3nc(c(C(F)(F)F)cc3N)C2=O)c1` [Compound 212, (6R)-17-amino-6-hydroxy-12-(m-tolylmethyl)-6,15-bis(trifluoromethyl)-19-oxa-3,4,12,18-tetrazatricyclo [12.3.1.12,5] nonadeca-1(18),2,4,14,16-pentaen-13-one], the EC50 is less than 500 nM.

For `CC(C)(C)CCN1CCCCC[C@](O)(C(F)(F)F)C2=NN=C(O2)c2nc(c(C(F)(F)F)cc2N)C1=O` [Compound 213, (6R)-17-amino-12-(3,3-dimethylbutyl)-6-hydroxy-6,15-bis(trifluoromethyl)-19-oxa-3,4,12,18-tetrazatricyclo [12.3.1.12,5] nonadeca-1(18),2,4,14,16-pentaen-13-one], the EC50 is less than 500 nM.

`Nc1cc(C(F)(F)F)c2nc1-c1nnc(o1)[C@@](O)(C(F)(F)F)CCCCCN(Cc1ccc(C3(C(F)(F)F)CC3)cn1)C2=O` [Compound 214, (6R)-17-amino-6-hydroxy-6,15-bis(trifluoromethyl)-12-[[5-[1-(trifluoromethyl)cyclopropyl]-2-pyridyl]methyl]-19-oxa-3,4,12,18-tetrazatricyclo [12.3.1.12,5] nonadeca-1(18),2,4,14,16-pentaen-13-one]: the EC50 was less than 500 nM.

As to `Nc1cc(C(F)(F)F)c2nc1-c1nnc(o1)[C@@](O)(C(F)(F)F)CCCCCN(Cc1cccc(Br)c1)C2=O` [Compound 216, (6R)-17-amino-12-[(3-bromophenyl)methyl]-6-hydroxy-6,15-bis(trifluoromethyl)-19-oxa-3,4,12,18-tetrazatricyclo [12.3.1.12,5] nonadeca-1(18),2,4,14,16-pentaen-13-one], the EC50 is less than 500 nM.

Broadly, the EC50 is the concentration giving half of the maximal effect.
